# Source: PubChem BioAssay AID2305 (GlaxoSmithKline (GSK), 2010)
# Test system: P. falciparum 3D7 growth, pLDH absorbance
# Assay: P. falciparum 3D7 growth inhibition, dose response, strain 3D7 (AID 2305)
row,SMILES,IC50
1,COc1cccc(NC(=O)N2CCOC(CCN3CCC4(CCc5ccccc54)CC3)(c3ccc(Cl)c(Cl)c3)C2)c1 (stereo unspecified),1.01 µM
2,CS(=O)(=O)c1cccc(-c2cnc3[nH]cc(-c4cccc(CCN)c4)c3c2)c1,1.56 µM
3,O=C(/C=C/c1ccc(Cl)c(Cl)c1)NCCCCN1CCCN(C(=O)Nc2ccc(F)c(Cl)c2)CC1,1.51 µM
4,CC(C)(CNC(=O)[C@@H]1CCCN(CCOc2ccc(Cl)cc2)C1)c1nc(-c2ccc(Cl)c(O)c2)c(-c2ccncc2)[nH]1,0.88 µM
5,CCCNCc1ccc(-c2ccc(CN(CC3CCCO3)C(=O)C3CC(=O)c4ccccc43)cc2)nc1 (stereo unspecified),0.86 µM
6,COc1cc2nc(N3CCC(CNC(=O)c4ccc(-c5ccc(C#N)cc5C)cc4)CC3)nc(N)c2cc1OC,0.18 µM
7,O=C(NCCCCN1CCC(c2c[nH]c3ccccc23)CC1)c1ccc(-c2ccc(C(F)(F)F)cc2)cc1,0.8 µM
8,CCCC(=O)Nc1ccc(OCCCN(Cc2ccccc2C(F)(F)F)c2ccc(C#N)c(C(F)(F)F)c2)cc1,0.93 µM
9,CC(CNc1nc(NCC(c2ccccc2)c2ccccc2)c2[nH]cnc2n1)c1ccccc1 (stereo unspecified),0.95 µM
10,CCCCc1ccc2[nH]cc(C(=O)OCC)c(=O)c2c1,0.63 µM
11,COc1ccc(CN(C)CCCOc2ccc(NC(=O)c3cccc4c(=O)c5cccc(C)c5[nH]c34)cc2)cc1OC,0.89 µM
12,CCCCCCNC(=O)C1Cc2c([nH]c3ccc(Br)cc23)C2(CCN(CCc3ccccc3)CC2)N1 (stereo unspecified),0.79 µM
13,NC1CCN(Cc2ccc(-c3ccc(-c4nc5ccccc5[nH]4)s3)cc2)C1 (stereo unspecified),0.74 µM
14,CNc1nc(NN=Cc2ccccc2Cl)nc(Nc2cccc(C(F)(F)F)c2)n1,0.92 µM
15,COc1cccc2c(NN=Cc3ccccc3[N+](=O)[O-])ccnc12,0.59 µM
16,COc1ccc(C(=O)N[C@@H](CC(C)C)C(=O)N[C@H](/C=N/NC(=O)c2ccccc2)CCc2ccccc2)cc1OCCN1CCOCC1,0.17 µM
17,COc1ccc(CC(C)NCC(O)c2ccc(Cl)c(Cl)c2)cc1 (stereo unspecified),0.72 µM
18,CCO[C@H]1CN[C@H](C#Cc2cc3c(Nc4ccc(OCc5cccc(F)c5)c(Cl)c4)ncnc3s2)C1,0.94 µM
19,COC(=O)c1ccc(CCC(C)NCC(O)c2cccc(C(F)(F)F)c2)cc1 (stereo unspecified),0.41 µM
20,CCCCCCOc1ccc(C(=O)NCCCC2CCN(CCCCCNC(=O)C=Cc3ccc(Cl)c(Cl)c3)CC2)cc1,0.85 µM
21,COc1nc2c(CCN3CC[C@H](NCc4cc(C#N)c5c(c4)OCCO5)[C@H](O)C3)ccnc2cc1F,0.78 µM
22,O=C(NCc1ccccc1)Nc1ccc(-c2ccc(-c3nc4ccc(C(F)(F)F)cc4[nH]3)cc2)cc1,0.67 µM
23,O=C(Nc1ccc(-c2nc3ccccc3[nH]2)cc1)c1ccc(Cl)c([N+](=O)[O-])c1,0.8 µM
24,CN(C)S(=O)(=O)c1ccc(C(=O)N(c2nc(-c3ccccc3)cs2)C2CCCCC2)cc1,0.76 µM

row,SMILES,IC50
1,CCNc1cc(C(=O)N[C@@H](Cc2ccccc2)[C@H](O)CNC2CCC(F)(F)CC2)c(F)c(N2CCCCS2(=O)=O)c1,0.21 µM
2,O=C(Nc1ccc(Cl)cc1F)N[C@H]1CCN(CCCCCNC(=O)[C@@H]2C[C@H]2c2ccc(Cl)c(Cl)c2)C1,1.09 µM
3,O=C(Nc1ccc(-c2cccc(-c3nc4ccc(F)cc4[nH]3)c2)cc1)c1cnn2cccnc12,0.65 µM
4,Cc1cccc(-c2ccc(CNC3CCN(CC4Cn5c(=O)ccc6ccc(F)c4c65)CC3)cn2)c1 (stereo unspecified),1.53 µM
5,CC1CCc2c(C(=O)Nc3c(F)cc(F)cc3Br)csc2C1 (stereo unspecified),0.75 µM
6,COCCOCCOCCn1ccc2c3c(N)nc(N)nc3ccc21,0.26 µM
7,CN1CCC(NC(=O)c2cc(Oc3ccc4c(c3)CCN4C(=O)Nc3cccc(C(F)(F)F)c3)ccn2)CC1,0.93 µM
8,Cc1cc(N[C@@H](Cc2ccccc2)C(=O)NCCCOC(C)C)nc(NCC2CCCCC2)n1,0.88 µM
9,O=c1cc(N2CCNCC2)c(Cl)nn1Cc1ccc(NS(=O)(=O)c2ccc(Oc3ccccc3)cc2)cc1,0.57 µM
10,O=C(NCCN1CCCCC1)c1ccc(Nc2nccc(Nc3ccc(Oc4ccccc4)cc3)n2)cc1,0.55 µM
11,Cc1c(Cl)cccc1NC(=S)NN=Cc1ccccn1,0.6 µM
12,O=C(NC(=O)c1ccccc1)NC1CCN(c2ccnc3cc(Cl)ccc23)C1 (stereo unspecified),0.58 µM
13,C[C@@H]1CN(c2cnn(Cc3ccc(NC(=O)Nc4ccc(-c5ccccc5)cc4)cc3)c(=O)c2Cl)C[C@H](C)N1,0.37 µM
14,CCn1c(-c2nonc2N)nc2c(Cl)ncc(O[C@H](CCN)c3ccccc3F)c21,1.46 µM
15,Clc1ccc(Nc2nc3nonc3nc2Nc2ccc(Cl)c(Cl)c2)cc1,0.65 µM
16,Cc1noc(-c2cccs2)c1C(=O)NC(C)c1cccc2ccccc12 (stereo unspecified),0.13 µM
17,COC1(C)Oc2ccc3cccc([N+](=O)[O-])c3c2C1=O (stereo unspecified),0.63 µM
18,CCCCCCNCCOc1ccc(-c2nc(-c3ccccc3)c(-c3ccccc3)[nH]2)cc1,0.67 µM
19,CCOC(=O)c1cn(CC)c2cc(OCc3ccccc3)ccc2c1=O,0.95 µM
20,Cc1ccc(-n2c(C)nc3c(Nc4ccc(-c5ccncc5)cc4)ncnc32)c(C)c1,0.1 µM
21,Cc1noc(C)c1-c1ccc2c(Nc3ccccc3C(C)(C)C)c(C(=O)NCc3ccc(C(F)(F)F)cc3)cnc2c1,0.76 µM
22,CC1(C)OC[C@]2(C)[C@@H](CC[C@]3(C)C4=CC(=O)CCC4CC[C@@H]23)O1 (stereo partly specified),0.28 µM
23,CNC(=O)COC(=O)c1c2c(nc3ccccc13)C(=Cc1ccc3c(c1)OCO3)CCC2,0.64 µM
24,Cc1cc(N(C)CCCN(C)C)nc(Nc2ccc(Cl)cc2)n1,1.02 µM

row,SMILES,IC50
1,COc1ccc(Cl)cc1N1CCN(CCCNC(=O)c2ccc(-c3nc4ccc(C(F)(F)F)cc4[nH]3)c(C)c2)CC1,0.76 µM
2,COc1cc(NC(=O)c2ccc(-c3ccc(C(C)=O)cc3)s2)ccc1OCCN1CCCC1,0.15 µM
3,COc1ccccc1C1CCN(C2CCC(NC(=O)c3cc4ccccc4[nH]3)CC2)CC1 (stereo unspecified),1.21 µM
4,COc1ccc(N2CCN(CCCCNC(=O)c3ccc(NC(=O)c4ccc(OC(F)(F)F)cc4)cc3)CC2)c(OC)c1,0.58 µM
5,COc1ccc2nc(C)cc(Nc3ccc(Cl)c(Cl)c3)c2c1,0.44 µM
6,COc1ccc(Cc2cnc(N)nc2N)cc1OCCCOc1ccccc1,0.91 µM
7,C[C@H](Cc1ccc(S(=O)(=O)c2ccc(C[C@@H](C)NC[C@H](O)c3cccc(Cl)c3)cc2)cc1)NC[C@H](O)c1cccc(Cl)c1,0.26 µM
8,Cc1ccc2nc(Nc3ccc(Nc4nc5ccc(C)cc5[nH]4)c(C)c3)[nH]c2c1,0.77 µM
9,CCCCN(CCCC)CCCN(CCCN(CCCC)CCCC)c1cc(C)nc(Nc2ccc(Cl)cc2)n1,0.37 µM
10,COc1ccc2ccccc2c1CON1C(N)=NC(N)=NC1(C)C,0.03 µM
11,NCC(NC(=O)c1ccc(-c2c[nH]c3ncccc23)s1)c1ccccc1 (stereo unspecified),0.55 µM
12,COc1ccc(CN2CCC(NCc3cccc(-n4ccnc4)c3)CC2)cc1,0.63 µM
13,Cc1cc(NN=Cc2ccccc2F)c2ccccc2n1,0.92 µM
14,Fc1ccc2nc(-c3cccc(-c4cccc(CNCc5ccccc5)c4)c3)[nH]c2c1,0.28 µM
15,O=C(Nc1cccc(F)c1)NC1CCN(c2ccnc3cc(Cl)ccc23)C1 (stereo unspecified),0.19 µM
16,CC(C)N(Cc1cnc2nc(N)nc(N)c2n1)c1ccc(Cl)c(Cl)c1,0.16 µM
17,O=C(N[C@@H](Cc1ccccc1)CN1CCC(Oc2ccc(F)cc2)CC1)c1ccc(OCCCN2CCCCC2)cc1,0.89 µM
18,COc1cccc2c(NN=Cc3cccc(Cl)c3)cc(C)nc12,0.71 µM
19,COc1ccc2ncc(Cl)c(N3CCC(CCNCc4ccc5c(n4)NC(=O)CS5)CC3)c2c1,0.96 µM
20,CC1(C)N=C(N)N=C(N)N1c1ccc(Oc2ccccc2)cc1,0.34 µM
21,OCCN1CCN(Cc2ccc(-c3cccc(-c4nc5ccccc5[nH]4)c3)cc2)CC1,0.75 µM
22,Cc1nnc(-c2ccc3ccccc3c2)c2cn(-c3cccc([N+](=O)[O-])c3)nc12,0.99 µM
23,Nc1nc(N)c2cc(C(F)(F)F)ccc2n1,1.13 µM
24,Cc1ccc(Cn2ncc(N3CCCNCC3)c(Cl)c2=O)cc1NC(=O)Nc1ccc(-c2ccccc2)cc1,0.63 µM

row,SMILES,IC50
1,O=C(Nc1cccnc1)c1ccc(-c2cc3ccncc3cc2OC2CCNCC2)s1,0.88 µM
2,CCCN(CCC)CC(O)COc1ccccc1C(=O)Nc1ccccc1 (stereo unspecified),0.8 µM
3,CC(C)(C)c1nn(-c2ccccc2)c2[nH]c(=O)c(CNCc3ccc4c(c3)OCO4)cc12,1.05 µM
4,CC(C)(C)c1ccc2nc(-c3ccc(C(=O)NCCCc4ccccc4)cc3)[nH]c2c1,0.8 µM
5,O=C(NCCN1CCOCC1)c1ccc(-c2ccc(CNCCCc3ccccc3)cc2)nc1,0.78 µM
6,Cc1ccc2nc(-c3ccc(C=CC(=O)NC4CCN(Cc5ccccc5)CC4)cc3)[nH]c2c1,0.68 µM
7,COc1cc(C(=O)NC2CC(C)(C)N(C)C(C)(C)C2)ccc1-c1nc2cc(Cl)c(Cl)cc2[nH]1,0.79 µM
8,O=c1ccc2ccc(F)c3c2n1CC3CN1CCC(NCc2cccc(-c3cccs3)c2)CC1 (stereo unspecified),0.83 µM
9,CCCCc1ccc(Cc2cnc3nc(N)nc(N)c3c2C)cc1,0.23 µM
10,CCN(CC)CCCCNc1cc(-c2[nH]c(-c3c(Cl)cccc3Cl)nc2-c2ccc3cc(OC)ccc3c2)ccn1,0.96 µM
11,O=C(CNCC1CCCCC1)Nc1cc(C(F)(F)F)ccc1Cl,0.98 µM
12,Cc1[nH]c2ccc(C#N)cc2c(=O)c1Br,0.64 µM
13,CN(C(=O)Cc1ccc(Cl)c(Cl)c1)C1CCN(CCCCCNC(=O)/C=C/c2ccc(Cl)c(Cl)c2)CC1,0.74 µM
14,Cc1cc(CN2CCC(C(=O)Nc3ccc(-c4nc5ccccc5[nH]4)cc3)CC2)oc1C,1.45 µM
15,CCOC(=O)c1ccc(NC(=O)N(Cc2ccc(-c3ccc(CN4CCNCC4)cc3)cc2)C2CCN(Cc3ccccc3)CC2)cc1,0.8 µM
16,NC1=NC2(CCCCC2)N(OCCCCCCCCNc2nc(N)nc(N)n2)C(N)=N1,0.06 µM
17,O=C(/C=C/c1ccc(Cl)c(Cl)c1)NCCCCCN1CCC(NC(=O)c2ccc3ccccc3c2)CC1,1.02 µM
18,CCCN(CCC)C(=O)c1cc(C(=O)N[C@@H](Cc2ccccc2)[C@H](O)CNC(C)(C)c2cccc(C(F)(F)F)c2)cc(N2CCCCS2(=O)=O)c1,0.04 µM
19,O=C(Nc1cccc2ccccc12)N1CCC(NS(=O)(=O)c2cccc(C(F)(F)F)c2)CC1,0.91 µM
20,COc1ccc2c(NN=Cc3ccccc3[N+](=O)[O-])ccnc2c1,0.74 µM
21,Cc1cnc2ccc(NS(=O)(=O)c3ccc4c(Cl)cccc4c3)cc2c1N1CCNCC1,0.75 µM
22,N#Cc1ccc(-c2ccc(C(=O)NCCCCN3CCC(c4cn(CCCO)c5ccccc45)CC3)cc2)cc1,0.75 µM
23,O=C(Nc1ccc(Oc2cccnc2)cc1)C1CCN(Cc2cc(Cl)ccc2O)CC1,1.35 µM
24,CN1CCC(Oc2cc(CN3CC[C@H](NC(=O)c4ccc(Cl)c(Cl)c4)C3)ccc2I)C1 (stereo partly specified),0.84 µM
